Source: patent US6448239B1, “Peroxynitrite decomposition catalysts and methods of use thereof” (Trustees of Princeton University, priority 1999, dated 2002)

Experiments:
calf thymus DNA (CT-DNA) = assay: Calf thymus-DNA titration (UV-visible spectrum); format: binding
Experimental: A 5 μM solution of 4-T(CX)PyP was prepared in 10 mM tris buffer+1 mM EDTA (pH=8.0). To 2 mL of this solution in a quartz cuvette, 1 μL aliquots of a 1.89 mM solution of calf thymus DNA (CT-DNA) in 10 mM tris+1 mM EDTA were added. The concentration of CT-DNA was determined by UV-visible spectrum. After each addition, the cuvette was vortexed to ensure good mixing, and the UV-visible spectrum was recorded. […] Several intermediate spectra were omitted for clarity.
The porphyrin 2-T(CX)PyP was titrated in an analogous way to 4-T(CX)PyP, as described above. […] Presumably, the ortho carboxamide groups provide sufficient steric bulk to prevent association of the positively-charged pyridyl groups with the negatively-charged sugar phosphate backbone. Even when CT-DNA was added in large excess to the solution of porphyrin, a redshift of only […] was observed.

plasmid pBR322 = assay: Cleavage of plasmid DNA with manganese pyridyl porphyrins, agarose gel; conditions: 1 mM Mn porphyrin, 50 μg/mL plasmid, 10 mM or 25 mM oxone, 5 min
From the text: Three forms of plasmid DNA are expected when Mn porphyrins interact with and cleave DNA, and they can be easily separated on an agarose gel. Uncleaved, supercoiled plasmid (Form I) will show the greatest mobility. In the event of a nick in the DNA, the supercoils will relax, and the open circular form of the plasmnid (Form II) will appear. Further oxidation will cleave the second strand of DNA as well, and leads to a linear form (Form III.) The relative electrophoretic mobilities are as follows: I>III>II.
Two concentrations of oxidant were used: 10 mM and 25 mM. All experiments were performed in 40 mM tris buffer+100 mM NaCl. […] Before reaction, porphyrin was allowed to incubate with plasmid for 30 min.
A typical reaction was performed as follows: to a solution of 1 mM manganese porphyrin and 50 μg/mL plasmid in buffer was added enough oxone to make a final concentration of 10 mM or 25 mM. (Volume of the entire reaction was 20 μL.) The reaction mixture was vortexed, then allowed to react for 5 min. HEPES buffer (100 mM) was added to stop the reaction.
Each sample was electrophoresed on a 1% agarose slab horizontal gel at 90V for 1 h at 24° C. in 40 mM tris-acetate (TAE) and 1 mM ETDA buffer. The agarose gel contained ethidium bromide (1 μg/mL) so that the lanes could be visualized by UV-vis, and the finished gel was photographed under UV illumination. Lanes 1-4 were run at 10 mM oxone, and lanes 5-8 were run at 25 mM oxone. The control lanes, C1 and C2, contained 10 mM and 25 mM oxone, respectively, but no porphyrin. […] The lane assignments include the following: lane 1: Mn 4-T(CX)PyP, lane 2: Mn 2-T(CX)PyP; lane 3, Mn 2-T(PEG3)PyP; lane 4: Mn 4-TMPyP; lane C1: plasmid+10 mM oxone; lane C2: Plasmid+25 mM oxone

4-Tetrakis(carboxamide)pyridyl Porphyrin [4-T(CX)PyP]
redshift of Soret band (Δλmax) (calf thymus DNA (CT-DNA); 5 μM porphyrin, 10 mM tris + 1 mM EDTA pH=8.0): 12 nm | binding constant to DNA (calf thymus DNA (CT-DNA); calculated from the titration): 7.99×10^6 | association with DNA (in words) (calf thymus DNA (CT-DNA); from change in Soret band): both porphyrin intercalation into DNA and outside stacking of porphyrin along the DNA backbone

Mn(III) 2-tetrakis(carboxamide)pyridyl porphyrin [Mn 2-T(CX)PyP]
appearance of linear form of DNA (Form III) (plasmid pBR322): does not appear at all

Mn(III) 2-tetrakis(triethylene glycol monomethyl ether)pyridyl porphyrin [Mn 2-T(PEG3)PyP]
appearance of linear form of DNA (Form III) (plasmid pBR322): does not appear at all

Mn(III) 4-tetrakis(carboxamide)pyridyl porphyrin [Mn 4-T(CX)PyP]
degree of plasmid cleavage (plasmid pBR322): greatest degree of plasmid cleavage
